One assay concerns the target T1, 5-HT2c receptors (Rattus norvegicus, UniProt P08909).
T1 construct: from tissue; host or cells: whole animal (male Wistar rat, in vivo)
T1 sequence (P08909 33-460): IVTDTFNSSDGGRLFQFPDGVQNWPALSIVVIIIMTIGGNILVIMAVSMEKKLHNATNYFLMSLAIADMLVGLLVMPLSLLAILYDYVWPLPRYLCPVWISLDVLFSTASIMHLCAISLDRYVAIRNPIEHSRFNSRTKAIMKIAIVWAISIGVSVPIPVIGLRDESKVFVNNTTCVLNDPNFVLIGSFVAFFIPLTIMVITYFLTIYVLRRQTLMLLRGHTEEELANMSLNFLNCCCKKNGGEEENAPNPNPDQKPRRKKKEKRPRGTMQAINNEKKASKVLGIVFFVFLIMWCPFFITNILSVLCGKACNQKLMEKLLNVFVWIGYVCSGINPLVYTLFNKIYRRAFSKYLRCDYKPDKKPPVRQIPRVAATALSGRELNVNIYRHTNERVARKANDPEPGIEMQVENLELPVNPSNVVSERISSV
Kind of assay: Penile erection test in the rat (erections caused by RO 60-0175). The format is in vivo. As to conditions: sc, male Wistar rats, s.c., compound 30 min before RO 60-0175 (1.25 mg/kg s.c.), erections counted over 30 min, read-out: inhibitory dose 50 (ID50), inhibition of penile erections caused by RO 60-0175. Here is the method:
This test allows evaluation of the capacity of pharmacological agents to inhibit penile erections caused by administration of a selective 5-HT2c agonist, RO 60-0175.
Male rats of the Wistar strain weighing 120-140 g on the day of the experiment are placed separately in plexiglass observation boxes immediately after the compound under test or the vehicle has been administered. Thirty minutes later, RO 60-0175 (1.25 mg/kg, subcutaneous) is administered to the animals and the number of erections occurring during the next 30 minutes is counted.

A further assay concerns male CD-1 mice. Kind of assay: Test for aggressiveness caused by isolation, in the mouse. As to conditions: isolated male CD-1 mice, i.p., 30 min before test, measured over three minutes. Type of assay: in vivo. As to the method: The animals used are male CD-1 mice. From the time of their arrival, the mice are isolated in individual cages, with free access to food and drink. After a period of one month of isolation, pairs of mice that are stable in terms of aggressiveness are selected by observing the latency period and the number and the duration of attacks when the mice are placed in the presence of one another.
The test is conducted once per week. On the day of the test, each mouse of the pair (resident and intruder) is given an intraperitoneal injection of the vehicle (control animals) or of the compound under test (treated animals) in a volume of 10 ml/kg. After 30 minutes, the intruder mouse is introduced into the cage of the resident mouse. The latency period until the first attack and the number and the duration of attacks are then measured over a period of three minutes.
A compound is considered to be specifically anti-aggressive when it reduces the number and the duration of attacks at non-sedative doses.

Assay [1] deals with male mice of the NMRI strain. Kind of assay: Marble-burying test in the mouse. Type of assay: in vivo. Particulars: s.c., 30 minutes' exploration, 24 marbles. The text has this:
This test allows evaluation of the capacity of pharmacological agents to inhibit spontaneous marble-burying behaviour in the mouse, the inhibition being predictive of antidepressant and/or anti-impulsive action.
Male mice of the NMRI strain weighing from 20 to 25 g on the day of the experiment are placed individually in Macrolon boxes containing 5 cm of sawdust and covered with a perforated plexiglass plate. Twenty-four “tiger's eye” glass marbles are evenly distributed on the sawdust at the periphery of the box. At the end of 30 minutes' free exploration, the animals are removed from the box and the number of buried marbles is counted.

A further assay addresses α2-adrenergic receptors. Kind of assay: Affinity for α2-adrenergic receptors, competition with [3H]-RX 821,002. Type of assay: binding. Particulars: rat cerebral cortex membranes, 0.4 nM [3H]-RX 821,002, 60 minutes at 22° C. As to the method: The affinity was determined by competition experiments with [^3H]-RX 821,002. The membranes are prepared from the cerebral cortex of the rat and are incubated in triplicate with 0.4 nM [^3H]-RX 821,002 and the compound being tested in a final volume of 1.0 ml, for 60 minutes at 22° C. The incubation buffer contains […] TRIS-HCl (pH 7.5), 1 mM EDTA and 100 μM GppNHp. The non-specific binding is determined using 10 μM phentolamine.
Data Analysis: At the end of the incubation, the incubation medium is filtered through WHATMAN GF/B filters impregnated with 0.1% of polyethylenimine and washed three times with 5 ml of cooled buffer. The radioactivity retained on the filters is determined by liquid scintillation counting. The binding isotherms are analysed by non-linear regression.

As a reminder, the pKi is the negative decadic logarithm of the Ki, by convention in mol/L. The low end stands for a high Ki, the high end for a low Ki.

With `Cc1nc2ccccn2c(=O)c1CCN1CC2COc3ccc4ccccc4c3C2C1.O=C(O)/C=C/C(=O)O` (stereo not shown) [Example 3, 3-[2-(1,3a,4,11c-Tetrahydrobenzo[5,6]chromeno[3,4-c]pyrrol-2(3H)-yl)-ethyl]-2-methyl-4H-pyrido[1,2-a]pyrimidin-4-one Fumarate], the ED50 on 5-HT2c receptors is 2.6 mg/kg. Further, in the assay on male CD-1 mice, the “inhibitory dose 50 (ID50), number and duration of attacks” value came out at 7 mg/kg. Besides, in assay [1], the “inhibitory dose 50 (ID50), spontaneous marble-burying behaviour” value was found to be 4.1 mg/kg. At α2-adrenergic receptors, the pKi came out at 7.5.

The values are drawn from patent publication US6747032B2, “Pyrimidin-4-one compounds” (Les Laboratoires Servier, priority 2001, dated 2004).
